Data published in patent US20250154686A1, “COMPOUND LIBRARY” (CHUGAI SEIYAKU KABUSHIKI KAISHA, priority 2021, published 2025).

Biological target: T1, Bcl-2 protein (Recombinant Human Bcl-2 Protein) (Homo sapiens, UniProt P10415)
T1 construct: purchased Novus Biologicals NBP2-34889
Test: AS-MS evaluation of binding of the Example 4 mixture library (1200 compounds/well) to Bcl-2, ASMS ratio (%)
Details: mixture library, value belongs to the MS peak assigned to the compound; for ASMS ratio (%) n = 1: replicate n = 1; for ASMS ratio (%) n = 2: replicate n = 2
Method: DMSO solutions (prepared into approximately 0.58 mM based on calculation from the average molecular weight of each mixture) of 12 types of mixtures that could each contain 100 compounds, i.e., mixAI-B4J-01, mixAI-B1M-01, mixAI-B1K-01, mixAI-BIO-01, mixAI-B1A-01, mixAI-B3A-01, mixAI-B21-01, mixAI-B2L-01, mixAI-B2N-01, mixAI-B2A-01, mixAI-B2Q-01, and mixAI-B2R-01, shown in Table AI-03-B4J-01, Table AI-03-B1M-01, Table AI-03-B1K-01, Table AI-03-B10-01, Table AI-03-B1A-01, Table AI-03-B3A-01, Table AI-03-B21-01, Table AI-03-B2L-01, Table AI-03-B2N-01, Table AI-03-B2A-01, Table AI-03-B2Q-01, and Table AI-03-B2R-01 described in Example 4, were respectively dispensed to a total of 12 wells of MICROPLATE, 96-well, PP, V-BOTTOM (Greiner Bio-One International GmbH, 651201). 70 nL each from the 12 wells was collected into any one well using LABCYTE ECHO® 555 acoustic dispensing system (Beckman Coulter, Inc.) to prepare a sample solution in a mixed state of 1200 compounds (the presence of 1152 compounds was already identified when the mixtures were prepared in Example 4). Further, Bcl-2 protein (Novus Biologicals, NBP2-34889, Recombinant Human Bcl-2 Protein, Lot E60145051) (19.2 μL) prepared at 20.9 μM in advance using a Tris-HCl buffer (25 mM Tris-HCl, pH 7.4, 150 mM NaCl, 0.025% Tween-20, and 1 mM DTT) was added to the well containing the dispensed 1200 compounds (the presence of 1152 compounds was already identified when the mixtures were prepared in Example 4) (final compound concentration: 20 nM, final Bcl-2 concentration: 20 μM), and the plate was incubated at 23° C. for 1 hour in the dark. Subsequently, 200 μL of an assay buffer (25 mM Tris-HCl, pH 7.4, 150 mM NaCl, 0.025% Tween-20, and 1 mM DTT) was centrifuged three times at 2000×G at 4° C. for 2 minutes using 96-well MacroSpin column, P-2 Material (Harvard Bioscience, Inc., 74-5655) that had been allowed to swell to condition the 96-well MacroSpin column. Subsequently, 20 μL of the sample thus incubated was added to the 96-well MacroSpin column, P-2 Material after the completion of conditioning, and SEC treatment was performed by centrifugation at 2000×G for 2 minutes. 32 μL of a 1:1 mixed solution of acetonitrile and methanol (LC/MS grade, FUJIFILM Wako Pure Chemical Corp.) was added to a flow-through liquid from SEC, and the mixture was centrifuged at 1800×G at 4° C. for 5 minutes. The supernatant was used as analysis sample ASMS (A). By a similar operation, a sample prepared at 1200 compounds/well and supplemented with only a Tris-HCl buffer containing no Bcl-2 protein was incubated under the same conditions as above, and the same organic solvent as above was added thereto without 96-well MacroSpin column treatment. A supernatant obtained by a centrifugation operation was used as STD (B). Next, by a similar operation, a sample prepared at 1200 compounds/well and supplemented with only a Tris-HCl buffer containing no Bcl-2 protein was incubated under the same conditions as above and treated with 96-well MacroSpin column in the same manner as above, and the same organic solvent as above was added thereto. A supernatant obtained by a centrifugation operation was used as BK (C). These samples were measured by reverse-phase LC/MS.
Then, the samples A, B and C were analyzed for the 1200 compounds using TraceFinder 5.1 (Thermo Fisher Scientific Inc.) and CHANCE Software (in-house), and an ASMS ratio (%) was calculated according to the following expression.
Although m/z of the MS peaks was confirmed down to four decimal places, 0 at the decimal level may be omitted in the description in Table AJ-01. For example, “587.0000” is also referred to as “587”, “587.1000” is also referred to as “587.1”, “587.1200” is also referred to as “587.12”, and “587.1230” is also referred to as “587.123”.

T1 sequence (P10415 whole entry): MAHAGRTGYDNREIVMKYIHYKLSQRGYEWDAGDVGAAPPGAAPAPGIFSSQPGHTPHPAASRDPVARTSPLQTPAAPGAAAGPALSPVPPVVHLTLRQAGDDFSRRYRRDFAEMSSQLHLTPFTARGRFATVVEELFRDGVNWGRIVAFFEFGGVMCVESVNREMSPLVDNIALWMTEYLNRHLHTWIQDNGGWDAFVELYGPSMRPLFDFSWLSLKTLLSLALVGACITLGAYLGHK

ASMS ratio (%) n = 1 | ASMS ratio (%) n = 2 | SMILES
0.0% | 0.0% | CCOc1cccc(-c2ccc(CN3CCN(c4ccc(C(=O)NS(C)(=O)=O)cc4)CC3)c(CC)c2)c1 [Compound B2I049-01, 4-[4-[[4-(3-Ethoxyphenyl)-2-ethylphenyl]methyl]piperazin-1-yl]-N-methylsulfonylbenzamide]
0.0% | −1.5% | CCOc1cncc(-c2ccc(CN3CCN(c4ccc(C(=O)NS(C)(=O)=O)cc4)CC3)c(CC)c2)c1 [Compound B2I050-01, 4-[4-[[4-(5-Ethoxypyridin-3-yl)-2-ethylphenyl]methyl]piperazin-1-yl]-N-methylsulfonylbenzamide]
0.0% | 0.0% | CCOc1cccc(-c2ccc(CN3CCN(c4ccc(C(=O)NS(C)(=O)=O)cc4)CC3)cc2F)c1 [Compound B2I051-01, 4-[4-[[4-(3-Ethoxyphenyl)-3-fluorophenyl]methyl]piperazin-1-yl]-N-methylsulfonylbenzamide]
0.0% | 0.0% | CCOc1cncc(-c2ccc(CN3CCN(c4ccc(C(=O)NS(C)(=O)=O)cc4)CC3)cc2F)c1 [Compound B2I052-01, 4-[4-[[4-(5-Ethoxypyridin-3-yl)-3-fluorophenyl]methyl]piperazin-1-yl]-N-methylsulfonylbenzamide]
0.0% | 0.0% | CCOc1cccc(-c2ccc(CN3CCN(c4ccc(C(=O)NS(C)(=O)=O)cc4)CC3)c(OC)c2)c1 [Compound B2I053-01, 4-[4-[[4-(3-Ethoxyphenyl)-2-methoxyphenyl]methyl]piperazin-1-yl]-N-methylsulfonylbenzamide]
0.0% | 0.0% | CCOc1cncc(-c2ccc(CN3CCN(c4ccc(C(=O)NS(C)(=O)=O)cc4)CC3)c(OC)c2)c1 [Compound B2I054-01, 4-[4-[[4-(5-Ethoxypyridin-3-yl)-2-methoxyphenyl]methyl]piperazin-1-yl]-N-methylsulfonylbenzamide]
0.0% | 0.0% | CCOc1cccc(-c2cc(CN3CCN(c4ccc(C(=O)NS(C)(=O)=O)cc4)CC3)cc(OCC)c2)c1 [Compound B2I055-01, 4-[4-[[3-Ethoxy-5-(3-ethoxyphenyl)phenyl]methyl]piperazin-1-yl]-N-methylsulfonylbenzamide]
0.0% | 0.0% | CCOc1cncc(-c2cc(CN3CCN(c4ccc(C(=O)NS(C)(=O)=O)cc4)CC3)cc(OCC)c2)c1 [Compound B2I056-01, 4-[4-[[3-Ethoxy-5-(5-ethoxypyridin-3-yl)phenyl]methyl]piperazin-1-yl]-N-methylsulfonylbenzamide]
0.0% | 0.0% | CCOc1cccc(-c2cc(CN3CCN(c4ccc(C(=O)NS(C)(=O)=O)cc4)CC3)cc(OC(C)C)c2)c1 [Compound B2I057-01, 4-[4-[[3-(3-Ethoxyphenyl)-5-propan-2-yloxyphenyl]methyl]piperazin-1-yl]-N-methylsulfonylbenzamide]
0.0% | 0.0% | CCOc1cncc(-c2cc(CN3CCN(c4ccc(C(=O)NS(C)(=O)=O)cc4)CC3)cc(OC(C)C)c2)c1 [Compound B2I058-01, 4-[4-[[3-(5-Ethoxypyridin-3-yl)-5-propan-2-yloxyphenyl]methyl]piperazin-1-yl]-N-methylsulfonylbenzamide]
0.0% | 0.0% | CCOc1cccc(-c2cc(OC)c(CN3CCN(c4ccc(C(=O)NS(C)(=O)=O)cc4)CC3)c(OC)c2)c1 [Compound B2I059-01, 4-[4-[[4-(3-Ethoxyphenyl)-2,6-dimethoxyphenyl]methyl]piperazin-1-yl]-N-methylsulfonylbenzamide]
0.0% | 0.0% | CCOc1cncc(-c2cc(OC)c(CN3CCN(c4ccc(C(=O)NS(C)(=O)=O)cc4)CC3)c(OC)c2)c1 [Compound B2I060-01, 4-[4-[[4-(5-Ethoxypyridin-3-yl)-2,6-dimethoxyphenyl]methyl]piperazin-1-yl]-N-methylsulfonylbenzamide]
−0.8% | 0.5% | CCOc1cccc(-c2cc(CN3CCN(c4ccc(C(=O)NS(C)(=O)=O)cc4)CC3)cc(C(F)(F)F)c2)c1 [Compound B2I061-01, 4-[4-[[3-(3-Ethoxyphenyl)-5-(trifluoromethyl)phenyl]methyl]piperazin-1-yl]-N-methylsulfonylbenzamide]
0.0% | 0.0% | CCOc1cncc(-c2cc(CN3CCN(c4ccc(C(=O)NS(C)(=O)=O)cc4)CC3)cc(C(F)(F)F)c2)c1 [Compound B2I062-01, 4-[4-[[3-(5-Ethoxypyridin-3-yl)-5-(trifluoromethyl)phenyl]methyl]piperazin-1-yl]-N-methylsulfonylbenzamide]
0.9% | 0.0% | CCOc1cccc(-c2cc(CN3CCN(c4ccc(C(=O)NS(C)(=O)=O)cc4)CC3)cc(OC(F)(F)F)c2)c1 [Compound B2I063-01, 4-[4-[[3-(3-Ethoxyphenyl)-5-(trifluoromethoxy)phenyl]methyl]piperazin-1-yl]-N-methylsulfonylbenzamide]
0.0% | 0.0% | CCOc1cncc(-c2cc(CN3CCN(c4ccc(C(=O)NS(C)(=O)=O)cc4)CC3)cc(OC(F)(F)F)c2)c1 [Compound B2I064-01, 4-[4-[[3-(5-Ethoxypyridin-3-yl)-5-(trifluoromethoxy)phenyl]methyl]piperazin-1-yl]-N-methylsulfonylbenzamide]
0.0% | 0.0% | CCOc1cccc(-c2ccc(CN3CCN(c4ccc(C(=O)NS(C)(=O)=O)cc4)CC3)c3ccccc23)c1 [Compound B2I065-01, 4-[4-[[4-(3-Ethoxyphenyl)naphthalen-1-yl]methyl]piperazin-1-yl]-N-methylsulfonylbenzamide]
0.0% | 0.0% | CCOc1cncc(-c2ccc(CN3CCN(c4ccc(C(=O)NS(C)(=O)=O)cc4)CC3)c3ccccc23)c1 [Compound B2I066-01, 4-[4-[[4-(5-Ethoxypyridin-3-yl)naphthalen-1-yl]methyl]piperazin-1-yl]-N-methylsulfonylbenzamide]
0.0% | 0.0% | CCOc1cccc(-c2csc(CN3CCN(c4ccc(C(=O)NS(C)(=O)=O)cc4)CC3)c2)c1 [Compound B2I067-01, 4-[4-[[4-(3-Ethoxyphenyl)thiophen-2-yl]methyl]piperazin-1-yl]-N-methylsulfonylbenzamide]
0.0% | 0.0% | CCOc1cncc(-c2csc(CN3CCN(c4ccc(C(=O)NS(C)(=O)=O)cc4)CC3)c2)c1 [Compound B2I068-01, 4-[4-[[4-(5-Ethoxypyridin-3-yl)thiophen-2-yl]methyl]piperazin-1-yl]-N-methylsulfonylbenzamide]
